According to ChEMBL document CHEMBL1128255, “Synthesis of 11 beta-[18F]fluoro-5 alpha-dihydrotestosterone and 11 beta-[18F]fluoro-19-nor-5 alpha-dihydrotestosterone: preparation via halofluorination-reduction, receptor binding, and tissue distribution” (J Med Chem, 1995):

What was measured:
[1] = %ID/g is percent injected dose per gram of tissue and in vivo distribution of compound obtained after 2 hour (blocked) in prostate (v); type: ADME, organism-based, Prostate gland
[2] = %ID/g is percent injected dose per gram of tissue and in vivo distribution of compound obtained after 2 hour (low) in prostate (d)/muscle; type: ADME, organism-based
[3] = %ID/g is percent injected dose per gram of tissue and in vivo distribution of compound obtained after 2 hour (blocked) in fat; type: ADME, organism-based, Adipose tissue
[4] = %ID/g is percent injected dose per gram of tissue and in vivo distribution of compound obtained after 4 hour in fat; type: ADME, organism-based, Adipose tissue
[5] = %ID/g is percent injected dose per gram of tissue and in vivo distribution of compound obtained after 4 hour in prostate (d); type: ADME, organism-based, Prostate gland
[6] = %ID/g is percent injected dose per gram of tissue and in vivo distribution of compound obtained after 1 hour in prostate (d)/biood; type: ADME, organism-based, Prostate gland; settings: other tissue
[7] = %ID/g is percent injected dose per gram of tissue and in vivo distribution of compound obtained after 2 hour (blocked) in prostate (v)/muscle; type: ADME, organism-based
[8] = %ID/g is percent injected dose per gram of tissue and in vivo distribution of compound obtained after 2 hour (low) in prostate (v); type: ADME, organism-based, Prostate gland
[9] = %ID/g is percent injected dose per gram of tissue and in vivo distribution of compound obtained after 2 hour in lung; type: ADME, organism-based
[10] = %ID/g is percent injected dose per gram of tissue and in vivo distribution of compound obtained after 2 hour (low) in fat; type: ADME, organism-based, Adipose tissue
[11] = %ID/g is percent injected dose per gram of tissue and in vivo distribution of compound obtained after 4 hour in bone; type: ADME, organism-based, Bone element
[12] = %ID/g is percent injected dose per gram of tissue and in vivo distribution of compound obtained after 1 hour in spleen; type: ADME, organism-based
[13] = %ID/g is percent injected dose per gram of tissue and in vivo distribution of compound obtained after 1 hour in prostate (v)/blood; type: ADME, organism-based
[14] = %ID/g is percent injected dose per gram of tissue and in vivo distribution of compound obtained after 2 hour in prostate (v); type: ADME, organism-based, Prostate gland
[15] = %ID/g is percent injected dose per gram of tissue and in vivo distribution of compound obtained after 1 hour in liver; type: ADME, organism-based
[16] = %ID/g is percent injected dose per gram of tissue and in vivo distribution of compound obtained after 4 hour in prostate (v)/blood; type: ADME, organism-based; settings: other tissue
[17] = %ID/g is percent injected dose per gram of tissue and in vivo distribution of compound obtained after 2 hour (low) in bladder; type: ADME, organism-based, Urinary bladder
[18] = %ID/g is percent injected dose per gram of tissue and in vivo distribution of compound obtained after 4 hour in lung; type: ADME, organism-based
[19] = %ID/g is percent injected dose per gram of tissue and in vivo distribution of compound obtained after 2 hour (low) in prostate (d)/biood; type: ADME, organism-based, Prostate gland
[20] = %ID/g is percent injected dose per gram of tissue and in vivo distribution of compound obtained after 2 hour in blood; type: ADME, organism-based
[21] = %ID/g is percent injected dose per gram of tissue and in vivo distribution of compound obtained after 2 hour (blocked) in blood; type: ADME, organism-based
[22] = %ID/g is percent injected dose per gram of tissue and in vivo distribution of compound obtained after 1 hour in prostate (v); type: ADME, organism-based, Prostate gland
[23] = %ID/g is percent injected dose per gram of tissue and in vivo distribution of compound obtained after 4 hour in bladder; type: ADME, organism-based, Urinary bladder
[24] = %ID/g is percent injected dose per gram of tissue and in vivo distribution of compound obtained after 2 hour (blocked) in bladder; type: ADME, organism-based, Urinary bladder
[25] = %ID/g is percent injected dose per gram of tissue and in vivo distribution of compound obtained after 2 hour (blocked) in lung; type: ADME, organism-based
[26] = %ID/g is percent injected dose per gram of tissue and in vivo distribution of compound obtained after 2 hour (blocked) in prostate (v)/blood; type: ADME, organism-based; settings: other tissue
[27] = %ID/g is percent injected dose per gram of tissue and in vivo distribution of compound obtained after 2 hour in fat; type: ADME, organism-based, Adipose tissue
[28] = %ID/g is percent injected dose per gram of tissue and in vivo distribution of compound obtained after 2 hour (low) in blood; type: ADME, organism-based
[29] = %ID/g is percent injected dose per gram of tissue and in vivo distribution of compound obtained after 2 hour (low) in prostate (v)/muscle; type: ADME, organism-based
[30] = %ID/g is percent injected dose per gram of tissue and in vivo distribution of compound obtained after 2 hour (blocked) in liver; type: ADME, organism-based
[31] = %ID/g is percent injected dose per gram of tissue and in vivo distribution of compound obtained after 1 hour in kidney; type: ADME, organism-based
[32] = %ID/g is percent injected dose per gram of tissue and in vivo distribution of compound obtained after 2 hour (low) in kidney; type: ADME, organism-based
[33] = %ID/g is percent injected dose per gram of tissue and in vivo distribution of compound obtained after 2 hour in bladder; type: ADME, organism-based, Urinary bladder
[34] = %ID/g is percent injected dose per gram of tissue and in vivo distribution of compound obtained after 2 hour in muscle; type: ADME, organism-based
[35] = %ID/g is percent injected dose per gram of tissue and in vivo distribution of compound obtained after 2 hour (blocked) in prostate (d); type: ADME, organism-based, Prostate gland
[36] = %ID/g is percent injected dose per gram of tissue and in vivo distribution of compound obtained after 2 hour (low) in prostate (v)/blood; type: ADME, organism-based
[37] = %ID/g is percent injected dose per gram of tissue and in vivo distribution of compound obtained after 1 hour in prostate (d); type: ADME, organism-based, Prostate gland
[38] = %ID/g is percent injected dose per gram of tissue and in vivo distribution of compound obtained after 2 hour (low) in muscle; type: ADME, organism-based
[39] = %ID/g is percent injected dose per gram of tissue and in vivo distribution of compound obtained after 4 hour in prostate (d)/muscle; type: ADME, organism-based
[40] = %ID/g is percent injected dose per gram of tissue and in vivo distribution of compound obtained after 2 hour in bone; type: ADME, organism-based, Bone element

C[C@]12CCC(=O)C[C@@H]1CC[C@@H]1[C@@H]2[C@@H](F)C[C@]2(C)[C@@H](O)CC[C@@H]12
ID/g [1]: 0.069%
ID/g [2]: 9.78%
ID/g [3]: 0.026%
ID/g [4]: 0.012%
ID/g [5]: 0.291%
ID/g [6]: 5.16%
ID/g [7]: 2.895%
ID/g [8]: 0.212%
ID/g [9]: 0.069%
ID/g [10]: 0.02%
ID/g [11]: 0.072%
ID/g [12]: 0.048%
ID/g [13]: 5.41%
ID/g [14]: 0.317%
ID/g [15]: 1.16%
ID/g [16]: 12.249%
ID/g [17]: 0.263%
ID/g [18]: 0.035%
ID/g [19]: 11.358%
ID/g [20]: 0.038%
ID/g [21]: 0.048%
ID/g [22]: 0.486%
ID/g [23]: 0.268%
ID/g [24]: 0.903%
ID/g [25]: 0.039%
ID/g [26]: 1.357%
ID/g [27]: 0.024%
ID/g [28]: 0.022%
ID/g [29]: 8.86%
ID/g [30]: 0.468%
ID/g [31]: 0.417%
ID/g [32]: 0.145%
ID/g [33]: 0.165%
ID/g [34]: 0.038%
ID/g [35]: 0.074%
ID/g [36]: 10.43%
ID/g [37]: 0.459%
ID/g [38]: 0.026%
ID/g [39]: 17.573%
ID/g [40]: 0.061%

C[C@]12C[C@H](F)[C@H]3[C@@H](CC[C@H]4CC(=O)CC[C@@H]43)[C@@H]1CC[C@@H]2O
ID/g [1]: 0.054%
ID/g [2]: 3.83%
ID/g [3]: 0.036%
ID/g [4]: 0.022%
ID/g [5]: 0.084%
ID/g [6]: 2.531%
ID/g [7]: 1.763%
ID/g [8]: 0.109%
ID/g [9]: 0.058%
ID/g [10]: 0.041%
ID/g [11]: 0.078%
ID/g [12]: 0.061%
ID/g [13]: 3.054%
ID/g [14]: 0.12%
ID/g [15]: 1.812%
ID/g [16]: 2.036%
ID/g [17]: 0.686%
ID/g [18]: 0.046%
ID/g [19]: 3.126%
ID/g [20]: 0.046%
ID/g [21]: 0.061%
ID/g [22]: 0.284%
ID/g [23]: 0.456%
ID/g [24]: 11.404%
ID/g [25]: 0.054%
ID/g [26]: 0.88%
ID/g [27]: 0.041%
ID/g [28]: 0.047%
ID/g [29]: 2.993%
ID/g [30]: 1.189%
ID/g [31]: 0.458%
ID/g [32]: 0.251%
ID/g [33]: 4.549%
ID/g [34]: 0.035%
ID/g [35]: 0.048%
ID/g [36]: 2.427%
ID/g [37]: 0.21%
ID/g [38]: 0.037%
ID/g [39]: 3.98%
ID/g [40]: 0.077%
